Assay results taken from PubChem BioAssay (NCI).
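GI50 is the concentration that inhibits growth by half. Definition used: TGI = concentration required for complete inhibition of growth.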

Key:
Assay in all cases: DTP human tumour cell line panel, 384-well format
A549 NSCLC = test system: A549 NSCLC
MALME-3M melanoma = test system: MALME-3M melanoma
NCI/ADR-RES ovarian = test system: NCI/ADR-RES ovarian
HT29 colon = test system: HT29 colon
MOLT-4 leukemia = test system: MOLT-4 leukemia
OVCAR-3 ovarian = test system: OVCAR-3 ovarian
OVCAR-8 ovarian = test system: OVCAR-8 ovarian
KM12 colon = test system: KM12 colon
NCI-H23 lung = test system: NCI-H23 lung
U251 glioblastoma = test system: U251 glioblastoma
NCI-H522 lung = test system: NCI-H522 lung
RXF 393 renal = test system: RXF 393 renal
DU-145 prostate = test system: DU-145 prostate
SF-295 CNS = test system: SF-295 CNS
SF-539 CNS = test system: SF-539 CNS
A498 renal = test system: A498 renal
SR leukemia = test system: SR leukemia
SNB-19 CNS = test system: SNB-19 CNS
MDA-MB-231 breast = test system: MDA-MB-231 breast
HOP-62 NSCLC = test system: HOP-62 NSCLC
LOX IMVI melanoma = test system: LOX IMVI melanoma
HCT-15 colon = test system: HCT-15 colon
IGROV1 ovarian = test system: IGROV1 ovarian
M14 melanoma = test system: M14 melanoma
SK-MEL-28 melanoma = test system: SK-MEL-28 melanoma
HCC-2998 colon = test system: HCC-2998 colon
CAKI-1 renal = test system: CAKI-1 renal
BT-549 breast = test system: BT-549 breast
T-47D breast = test system: T-47D breast
TK-10 renal = test system: TK-10 renal
NCI-H322M lung = test system: NCI-H322M lung
SK-OV-3 ovarian = test system: SK-OV-3 ovarian
SF-268 CNS = test system: SF-268 CNS
RPMI-8226 leukemia = test system: RPMI-8226 leukemia
SK-MEL-5 melanoma = test system: SK-MEL-5 melanoma
SNB-75 CNS = test system: SNB-75 CNS
MDA-MB-468 breast = test system: MDA-MB-468 breast
ACHN renal = test system: ACHN renal
UACC-257 melanoma = test system: UACC-257 melanoma
PC-3 prostate = test system: PC-3 prostate
OVCAR-5 ovarian = test system: OVCAR-5 ovarian
OVCAR-4 ovarian = test system: OVCAR-4 ovarian
NCI-H226 lung = test system: NCI-H226 lung
HCT-116 colon = test system: HCT-116 colon
MCF7 breast = test system: MCF7 breast
SN12C renal = test system: SN12C renal
HS 578T breast = test system: HS 578T breast
HL-60(TB) leukemia = test system: HL-60(TB) leukemia
NCI-H460 NSCLC = test system: NCI-H460 NSCLC
EKVX NSCLC = test system: EKVX NSCLC
HOP-92 NSCLC = test system: HOP-92 NSCLC
COLO 205 colon = test system: COLO 205 colon

`CNCCn1c(=O)c2cc(OC)c(OC)cc2c2cnc3cc4c(cc3c21)OCO4` showed a GI50 (A549 NSCLC) of less than 10 nM, a TGI (A549 NSCLC) of 1080 nM and a GI50 (MALME-3M melanoma) of 25.5 nM. The TGI (MALME-3M melanoma) was 1810 nM, the GI50 (NCI/ADR-RES ovarian) was less than 10 nM and the TGI (NCI/ADR-RES ovarian) was 42.9 nM. The GI50 (HT29 colon) was less than 10 nM, the TGI (HT29 colon) was 20.5 nM and the GI50 (MOLT-4 leukemia) was less than 10 nM. For the same molecule, the TGI (MOLT-4 leukemia) was less than 10 nM, the GI50 (OVCAR-3 ovarian) was less than 10 nM and the TGI (OVCAR-3 ovarian) was 14.1 nM. The GI50 (OVCAR-8 ovarian) was less than 10 nM, the TGI (OVCAR-8 ovarian) was 33.8 nM and the GI50 (KM12 colon) was 10.8 nM. It also gave a TGI (KM12 colon) of 43.2 nM, a GI50 (NCI-H23 lung) of less than 10 nM and a TGI (NCI-H23 lung) of 16.2 nM. For the same molecule, the GI50 (U251 glioblastoma) was less than 10 nM, the TGI (U251 glioblastoma) was 12.3 nM and the GI50 (NCI-H522 lung) was less than 10 nM. The TGI (NCI-H522 lung) was 23.3 nM, the GI50 (RXF 393 renal) was 13.7 nM and the TGI (RXF 393 renal) was 43.1 nM. The GI50 (DU-145 prostate) was less than 10 nM, the TGI (DU-145 prostate) was less than 10 nM and the GI50 (SF-295 CNS) was less than 10 nM. The TGI (SF-295 CNS) was less than 10 nM, the GI50 (SF-539 CNS) was less than 10 nM and the TGI (SF-539 CNS) was 12.3 nM. For the same molecule, the GI50 (A498 renal) was less than 10 nM, the TGI (A498 renal) was 20.9 nM and the GI50 (SR leukemia) was less than 10 nM. For the same molecule, the TGI (SR leukemia) was less than 10 nM, the GI50 (SNB-19 CNS) was less than 10 nM and the TGI (SNB-19 CNS) was 14.1 nM. It also gave a GI50 (MDA-MB-231 breast) of 35.8 nM, a TGI (MDA-MB-231 breast) of 139 nM and a GI50 (HOP-62 NSCLC) of less than 10 nM. It also gave a TGI (HOP-62 NSCLC) of less than 10 nM, a GI50 (LOX IMVI melanoma) of less than 10 nM and a TGI (LOX IMVI melanoma) of 12 nM. For the same molecule, the GI50 (HCT-15 colon) was less than 10 nM, the TGI (HCT-15 colon) was 25.8 nM and the GI50 (IGROV1 ovarian) was 15.8 nM. It also gave a TGI (IGROV1 ovarian) of 66.7 nM, a GI50 (M14 melanoma) of less than 10 nM and a TGI (M14 melanoma) of less than 10 nM. It also gave a GI50 (SK-MEL-28 melanoma) of 28.8 nM, a TGI (SK-MEL-28 melanoma) of 1830 nM and a GI50 (HCC-2998 colon) of 12.4 nM. For the same molecule, the TGI (HCC-2998 colon) was 32.4 nM, the GI50 (CAKI-1 renal) was less than 10 nM and the TGI (CAKI-1 renal) was 1490 nM. It also gave a GI50 (BT-549 breast) of less than 10 nM, a TGI (BT-549 breast) of 20.4 nM and a GI50 (T-47D breast) of less than 10 nM. The TGI (T-47D breast) was 242 nM, the GI50 (TK-10 renal) was 13.8 nM and the TGI (TK-10 renal) was 58.4 nM. The GI50 (NCI-H322M lung) was 15.6 nM, the TGI (NCI-H322M lung) was 41.1 nM and the GI50 (SK-OV-3 ovarian) was less than 10 nM. The TGI (SK-OV-3 ovarian) was 17.7 nM, the GI50 (SF-268 CNS) was less than 10 nM and the TGI (SF-268 CNS) was 17.2 nM. The GI50 (RPMI-8226 leukemia) was less than 10 nM, the TGI (RPMI-8226 leukemia) was less than 10 nM and the GI50 (SK-MEL-5 melanoma) was less than 10 nM. It also gave a TGI (SK-MEL-5 melanoma) of 14.8 nM, a GI50 (SNB-75 CNS) of less than 10 nM and a TGI (SNB-75 CNS) of 23.3 nM. It also gave a GI50 (MDA-MB-468 breast) of less than 10 nM, a TGI (MDA-MB-468 breast) of less than 10 nM and a GI50 (ACHN renal) of less than 10 nM. For the same molecule, the TGI (ACHN renal) was less than 10 nM, the GI50 (UACC-257 melanoma) was 22.8 nM and the TGI (UACC-257 melanoma) was 1310 nM. For the same molecule, the GI50 (PC-3 prostate) was 22.1 nM, the TGI (PC-3 prostate) was 1340 nM and the GI50 (OVCAR-5 ovarian) was 10.6 nM. For the same molecule, the TGI (OVCAR-5 ovarian) was 29.1 nM, the GI50 (OVCAR-4 ovarian) was 21.7 nM and the TGI (OVCAR-4 ovarian) was 42 nM. For the same molecule, the GI50 (NCI-H226 lung) was 12.7 nM, the TGI (NCI-H226 lung) was 756 nM and the GI50 (HCT-116 colon) was less than 10 nM. For the same molecule, the TGI (HCT-116 colon) was 19.2 nM, the GI50 (MCF7 breast) was less than 10 nM and the TGI (MCF7 breast) was 158 nM. It also gave a GI50 (SN12C renal) of less than 10 nM, a TGI (SN12C renal) of less than 10 nM and a GI50 (HS 578T breast) of 33.5 nM. It also gave a TGI (HS 578T breast) of 1810 nM, a GI50 (HL-60(TB) leukemia) of less than 10 nM and a TGI (HL-60(TB) leukemia) of less than 10 nM. It also gave a GI50 (NCI-H460 NSCLC) of less than 10 nM, a TGI (NCI-H460 NSCLC) of less than 10 nM and a GI50 (EKVX NSCLC) of 21.9 nM. For the same molecule, the TGI (EKVX NSCLC) was 51.6 nM, the GI50 (HOP-92 NSCLC) was 14.1 nM and the TGI (HOP-92 NSCLC) was 1330 nM. The GI50 (COLO 205 colon) was less than 10 nM and the TGI (COLO 205 colon) was 1330 nM.
